Data: patent US5981574A, “Phenanthrofuran derivatives” (Phytera, Inc., priority 1998, dated 1999)

System: Human umbilical-vein endothelial cells (HUVEC)
Assay: Anti-angiogenic activity in Tube Formation Assay (collagen tube, 1st Assay and 2nd Assay)
Assay type: cell-based
Conditions: for inhibition at 10 µg/mL / inhibition at 30 µg/mL / inhibition at 1 µM / inhibition at 10 µM / inhibition at 1 µg/mL: Homo sapiens, HUVEC; for inhibition at 10 µg/mL: 10 μg/ml; for inhibition at 30 µg/mL: 30 μg/ml; for inhibition at 1 µM / inhibition at 10 µM: positive control
Description: Anti-angiogenic activity: collagen tube
Human umbilical-vein endothelial cells (HUVEC; Kurabo Industries, Ltd., Osaka, Japan) were cultured with M-199 medium (Gibco, Gaithersburg, Md.) with […], bFGF (15 ng/mL; PeproTech EC, Ltd., Princeton, N.J.) and epidermal growth factor (EGF) (15 ng/mL; Upstate Biotechnology Inc., Lake Placid, N.Y.) until they become confluent. All experiments were performed using cells that were passaged at least five times. Eight volumes of type-I collagen solution (Nitta Gelatin Inc., Osaka, Japan)were mixed with one volume of 10X M-199 medium and one volume of reconstruction buffer (0.5 N NaOH, 200 mM HEPES and 260 mM NaHCO3).
Collagen gel (300 μL/well) was placed in 24-well culture plates (NUNC) and incubated for 1.5 hours. HUVEC (1.4×10^5 /0.5 mL) were seeded in the collagen-coated plates and cultured for 2 hours at 37° C. Fifty microliters of sample were added. The collagen gel was replaced (300 μL/well), and the mixture was cultured for 1.5 hours. Three hundred fifty microliters of M-199 medium with […], 30 ng/mL basic fibroblast growth factor (bFGF) were added, and the mixture was cultured for 20 hours. One field per well was photographed with a phase-contrast microscope, and the length of the tube structures were measured on a Macintosh computer using the public domain NIH Image program (see Table 1 for results). Erbstatin was used as a positive control for inhibition of angiogenesis.

[1] = 1st Assay, 1 μg/ml, n.e.: no effect, over 100% = more inhibition than in control cultures without bFGF
[2] = 1st Assay, over 100% = more inhibition than in control cultures without bFGF
[3] = 2nd Assay, over 100% = more inhibition than in control cultures without bFGF

SMILES | % of inhibition (tube formation) [1] | inhibition at 10 µg/mL [2] [%] | inhibition at 30 µg/mL [2] [%] | inhibition at 10 µg/mL [3] [%] | inhibition at 30 µg/mL [3] [%] | inhibition at 1 µM (1st Assay) [%] | inhibition at 10 µM (1st Assay) [%] | inhibition at 1 µM (2nd Assay) [%] | inhibition at 10 µM (2nd Assay) [%] | inhibition at 1 µg/mL [1] [%] | inhibition at 1 µg/mL (2nd Assay, 1 μg/ml, over 100% = more inhibition than in control cultures without bFGF) [%]
CC1=C(C)C2=CC(=O)c3c(c(O)c4occ(C)c4c3O)C2(C)CC1 (stereo not drawn) [Ajuforrestine A fraction, 1,11b-dihydro-7,11-dihydroxy-3,4,8,11b-tetramethyl-phenanthro[3,2-b]furan-6(2H)-one] | n.e. | 99.6 | 102 | 98 | 109 |  |  |  |  |  | 
O=CN/C=C/c1cc(O)ccc1O [Erbstatin, reference compound] |  |  |  |  |  | 7.6 | 118 | 6.7 | 108 |  | 
CC1=C(C)C2=CC(=O)c3c(c(O)c4oc(C)cc4c3O)C2(C)CC1 (stereo not drawn) [Formula I-A fraction] |  | 119 | 119 | 108 | 107 |  |  |  |  | 115 | 108
